Test results published in paper PMC4521925, “17β-Hydroxysteroid Dehydrogenase Type 2 Inhibition: Discovery of Selective and Metabolically Stable Compounds Inhibiting Both the Human Enzyme and Its Murine Ortholog” (PLoS ONE, 2015).

Assays:
[1] = molecular target: ERβ (Homo sapiens, UniProt Q92731); experiment: Estrogen receptor affinity in a cell-free assay (ERβ); format: binding; details: 1000-fold excess relative to E2; recombinant human ERβ
Method: The binding affinity of selected compounds to ERα and ERβ was determined according to the recommendations of the US Environmental Protection Agency (EPA) by their Endocrine Disruptor Screening Program (EDSP)[24] using recombinant human proteins.
The potential inhibitors were dissolved in DMSO (5% final concentration). […] After incubation, ligand-receptor complexes were selectively bound to hydroxyapatite (83.5 g/LinTE-buffer). The bound complex was washed three times and resuspended in ethanol. For radiodetection, scintillator cocktail (Quickszint 212, Zinsser Analytic, Frankfurt) was added and samples were measured in a liquid scintillation counter (1450 LSC & Luminescence Counter, Perkin Elmer).
After the assay was established and validated, a modification was made to increase throughput.

[2] = molecular target: T1, m17β-HSD1 (Mus musculus, UniProt P51656); experiment: Inhibition of m17β-HSD1 in cell-free assay; format: biochemical; details: recombinant m17β-HSD1, substrate E1 [500 nM], NADPH [500 μM]
T1 construct: host or cells: HEK 293 cells, transient transfection, 1000 g supernatant of the lysate
T1 sequence (P51656 1-344): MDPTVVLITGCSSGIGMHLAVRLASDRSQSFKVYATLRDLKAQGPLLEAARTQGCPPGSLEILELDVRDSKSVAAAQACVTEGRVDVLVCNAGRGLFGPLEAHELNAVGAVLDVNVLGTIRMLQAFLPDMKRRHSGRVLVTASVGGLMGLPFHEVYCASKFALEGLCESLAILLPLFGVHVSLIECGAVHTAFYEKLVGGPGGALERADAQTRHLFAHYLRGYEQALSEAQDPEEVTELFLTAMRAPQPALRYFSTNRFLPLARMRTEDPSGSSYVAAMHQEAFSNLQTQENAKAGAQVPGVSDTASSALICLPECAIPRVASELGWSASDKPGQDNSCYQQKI
Method: h17β-HSD2, h17β-HSD1, m17β-HSD2 and m17β-HSD1 cell-free assays were performed similarly, by incubating enzyme, tritiated substrate, cofactor and inhibitor, according to described procedures.
Recombinant m17β-HSD1 enzyme was produced by transfection of HEK 293 cells with a m17β-HSD1 expression plasmid (coding sequence of NM_010475 in pCMV6Entry vector, OriGene Technologies, Inc.) according to a described procedure. 48 hours after transfection cells were homogenized by sonication (3 x 10 s) in a buffer containing saccharose (40 mMTris, 250 mM saccharose, 5 mM EDTA, 7 mM DTT, 1 mM PMSF, pH 7,5). Cell lysate was centrifuged (1000 g, 15 min, 4°C) and 20% glycerol was added to the supernatant before aliquots were frozen and stored at -70°C.
The 17β-HSD1 inhibition assay was performed similarly to the h17β-HSD2 test. The human cytosolic enzyme was incubated with NADH [500 μM] while the mouse recombinant enzyme was reacted with NADPH [500 μM].Test compound and a mixture of unlabelled- and [^3H]-E1 (final concentration: 500 nM, 0.15 μCi) were added and mixed for 10 min at 37°C. Further treatment of the samples and HPLC separation was carried out as mentioned above for h17β-HSD2.

[3] = molecular target: T2, h17β-HSD1 (Homo sapiens, UniProt P14061); experiment: Inhibition of h17β-HSD1 in cell-free assay; format: biochemical; details: human placental cytosolic fraction, substrate E1 [500 nM], cofactor NADH [500 μM]
T2 construct: h17β-HSD1 was obtained after precipitation with ammonium sulfate from the cytosolic fraction; from tissue; host or cells: human placenta, cytosolic fraction
T2 sequence (P14061 1-328): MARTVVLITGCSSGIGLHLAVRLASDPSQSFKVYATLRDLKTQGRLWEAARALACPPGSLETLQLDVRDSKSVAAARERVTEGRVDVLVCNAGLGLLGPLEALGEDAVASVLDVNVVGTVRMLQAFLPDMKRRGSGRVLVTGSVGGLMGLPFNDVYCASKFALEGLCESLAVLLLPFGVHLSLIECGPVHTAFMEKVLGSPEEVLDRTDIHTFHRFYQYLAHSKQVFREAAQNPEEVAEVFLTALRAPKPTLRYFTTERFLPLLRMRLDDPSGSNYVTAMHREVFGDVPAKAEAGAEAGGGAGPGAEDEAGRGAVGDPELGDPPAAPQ
In short: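 Cytosolic enzyme from human placenta, ammonium sulfate-precipitated, incubated with 500 μM NADH, test compound and unlabelled plus [3H]-E1 (500 nM final) for 10 min at 37°C. Steroids separated by HPLC with radiodetection to quantify conversion.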

[4] = molecular target: T3, h17β-HSD2 (Homo sapiens, UniProt P37059); experiment: Inhibition of h17β-HSD2 in cell-free assay; format: biochemical; set-up: from tissue; host or cells: human placenta, microsomal fraction; details: for s.f. (selectivity factor) = IC50(17β-HSD1)/IC50(17β-HSD2): human enzymes, cell-free
T3 sequence (P37059 1-387): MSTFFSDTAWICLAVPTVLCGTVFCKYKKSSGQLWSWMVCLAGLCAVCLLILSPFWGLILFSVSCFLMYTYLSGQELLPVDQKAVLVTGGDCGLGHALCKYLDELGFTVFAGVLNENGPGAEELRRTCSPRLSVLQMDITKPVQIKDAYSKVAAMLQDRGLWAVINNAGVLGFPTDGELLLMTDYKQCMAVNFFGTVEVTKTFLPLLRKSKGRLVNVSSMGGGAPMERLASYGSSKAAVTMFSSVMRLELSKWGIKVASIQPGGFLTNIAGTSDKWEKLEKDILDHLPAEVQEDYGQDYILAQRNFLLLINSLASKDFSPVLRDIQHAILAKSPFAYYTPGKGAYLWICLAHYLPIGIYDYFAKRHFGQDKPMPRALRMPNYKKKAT

ERβ, sequence (Q92731 whole entry): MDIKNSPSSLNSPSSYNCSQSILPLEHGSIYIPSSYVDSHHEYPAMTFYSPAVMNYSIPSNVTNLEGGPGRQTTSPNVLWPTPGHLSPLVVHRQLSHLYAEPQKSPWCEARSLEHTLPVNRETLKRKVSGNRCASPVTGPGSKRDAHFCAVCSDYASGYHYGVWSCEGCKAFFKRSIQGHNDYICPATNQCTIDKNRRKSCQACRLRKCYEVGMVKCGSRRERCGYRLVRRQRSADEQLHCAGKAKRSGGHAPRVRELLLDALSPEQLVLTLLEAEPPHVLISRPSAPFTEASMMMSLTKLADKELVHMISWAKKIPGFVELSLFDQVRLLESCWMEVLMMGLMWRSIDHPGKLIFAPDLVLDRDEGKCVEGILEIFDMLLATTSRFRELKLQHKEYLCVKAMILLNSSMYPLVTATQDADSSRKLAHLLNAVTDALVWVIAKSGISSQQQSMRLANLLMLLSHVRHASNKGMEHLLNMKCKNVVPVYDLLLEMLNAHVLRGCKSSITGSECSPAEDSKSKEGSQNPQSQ

SMILES	displacement of E2 from ERβ [1] [%]	inhibition of m17β-HSD1 at 1 μM [2]	IC50 [3] [nM]	IC50 [4] [nM]	s.f. (selectivity factor) = IC50(17β-HSD1)/IC50(17β-HSD2) [4]
Cc1cccc(N(C)C(=O)c2ccc(-c3cccc(C)c3F)cc2)c1 [Compound 21a, 2'-Fluoro-N,3'-dimethyl-N-(m-tolyl)-[1,1'-biphenyl]-4-carboxamide]	≤ 20	None of the tested compounds showed any inhibition	3710	330	11
COc1cccc(N(C)C(=O)c2ccc(-c3cccc(C)c3)cc2)c1 [Compound 6a, N-(3-methoxyphenyl)-N,3'-dimethyl-[1,1'-biphenyl]-4-carboxamide]	≤ 20		6400	260	25
Cc1cccc(-c2ccc(C(=O)N(C)Cc3cccc(O)c3)cc2)c1F [Compound 25, 2'-Fluoro-N-(3-hydroxybenzyl)-N,3'-dimethyl-[1,1'-biphenyl]-4-carboxamide]	≤ 20	None of the tested compounds showed any inhibition	31000	260	118
COc1cccc(N(C)C(=O)c2ccc(-c3ccc(C)c(C)c3)cc2)c1 [Compound 17a, N-(3-methoxyphenyl)-N,3',4'-trimethyl-[1,1'-biphenyl]-4-carboxamide]	≤ 20	None of the tested compounds showed any inhibition	13300	300	44
